Results reported in PMC8081377 (Mutagenesis, 2021).
Where two headings read alike, the source gives them in different places.

Key:
[1] = test system: EpiDerm™ EPI-200-MNA skin tissues
[2] = test system: EpiDerm™ EPI-200-MNA skin tissues; details: for top/maximum dose tested, limited by excessive or strong cytotoxicity: % VCC or % BN
[3] = test system: mouse lymphoma cells; details: cited from earlier work
[4] = cited from earlier work
[5] = topically-applied; cited from earlier work
[6] = test system: reconstructed human skin (RS) tissues; details: cited from earlier work; for detection of DNA damage, RS Comet assay versus RSMN assay: direct treatment with genotoxic metabolites of 2-AAF
[7] = test system: RS tissues; details: cited from earlier work; for RSMN result with the 72-h protocol: contract research lab
[8] = test system: multiple tissues; details: mice, single i.p. injection; cited from earlier work
[9] = test system: stomach, liver; details: rats, daily treatment for 3 days, initial evaluation; cited from earlier work
[10] = test system: V79, CHO, CHL, HuLy, TK6, HepG2, L5178Y cells; details: cited from earlier work
[11] = test system: CHO, CHL, V79, HuLy cells; details: cited from earlier work
[12] = three treatments, vs solvent control
[13] = two treatments, vs solvent control
[14] = multiple treatments of RS tissues

Compound: C1=Cc2cc3cccc4ccc5ccc1c2c5c43 [Cyclopenta[c,d]pyrene (CPPE), Cyclopenta[c,d]pyrene]
- classification in the RSMN assay by Lab B ([1]; overall call): positive
- % MN-BN response in individual experiment(s), Lab B, 72-h protocol [1, 12]: significant increase
- % MN-BN response in individual experiment(s), Lab C, 48-h protocol [1, 13]: negative results
- maximum dose tested without exceeding the cytotoxicity thresholds ([2]; lack of excessive cytotoxicity, 48-h protocol): 1600 µg/cm^2
- mouse lymphoma assay [3]: positive
- skin tumours ([4]; mice, dermal application, ref Supplementary Table S1): induce skin tumours

Compound: CC(=O)Nc1ccc2c(c1)Cc1ccccc1-2 [2-Acetylaminofluorene (2-AAF), 2-Acetylaminofluorene]
- metabolism in human skin explants [5]: evidence for metabolism
- classification in the RSMN assay by Lab B ([1]; overall call): negative
- classification in the RSMN assay by Lab C ([1]; overall call): negative
- classification in the RSMN assay by Lab D ([1]; overall call): negative
- % MN-BN response in individual experiment(s), Lab B, 72-h protocol [1, 12]: without a significant response
- % MN-BN response in individual experiment(s), Lab C, 72-h protocol [1, 12]: without a significant response
- % MN-BN response in individual experiment(s), Lab B, 48-h protocol [1, 13]: without a significant response
- % MN-BN response in individual experiment(s), Lab C, 48-h protocol [1, 13]: without a significant response
- % MN-BN response in individual experiment(s), Lab D, 48-h protocol [1, 13]: no significant increase
- DNA damage in the RS Comet assay [6]: weak, but statistically significant and reproducible increase in DNA damage
- response in the RS Comet assay [6, 14]: significant response
- response in the RSMN assay [7, 14]: not in the RSMN assay

Compound: c1ccc2c(c1)cc1ccc3cccc4ccc2c1c34 [B[a]P]
- RSMN result with the 72-h protocol [7]: positive results

Compound: O=P1(N(CCCl)CCCl)NCCCO1 (stereo not drawn) [cyclophosphamide]
- RSMN result with the 72-h protocol [7]: positive results

Compound: [Cl][Cd][Cl] [Cadmium chloride (CdCl2), Cadmium chloride]
- in vivo comet assay result, multiple tissues [8]: negative results
- in vivo comet assay result, stomach [9]: positive
- classification in the RSMN assay by Lab A ([1]; overall call): positive
- classification in the RSMN assay by Lab B ([1]; overall call): negative
- classification in the RSMN assay by Lab C ([1]; overall call): positive
- % MN-BN response in individual experiment(s), Lab A, 72-h protocol [1, 12]: clear increase
- % MN-BN response in individual experiment(s), Lab B, 72-h protocol [1, 12]: negative results
- % MN-BN response in individual experiment(s), Lab A, 48-h protocol [1, 13]: without any significant increase
- % MN-BN response in individual experiment(s), Lab B, 48-h protocol [1, 13]: No detectable increase
- % MN-BN response in individual experiment(s), Lab C, 48-h protocol [1, 13]: negative
- top/maximum dose tested, limited by excessive or strong cytotoxicity ([2]; lab(s) as stated in the text): 160 µg/cm^2
- doses that caused 50% cytotoxicity ([2]; Lab A, 48-h protocol, Phase 2c): 100–160 µg/cm^2

Compound: Nc1ccn([C@@H]2O[C@H](CO)[C@@H](O)[C@@H]2O)c(=O)n1 [Cytosine arabinoside]
- in vitro MN tests [10]: positive
- classification in the RSMN assay by Lab B ([1]; overall call): negative
- % MN-BN response in individual experiment(s), Lab B, 72-h protocol [1, 12]: Negative results
- % MN-BN response in individual experiment(s), Lab B, 48-h protocol [1, 13]: did not show a significant increase
- top/maximum dose tested, limited by excessive or strong cytotoxicity ([2]; lab(s) as stated in the text): 48 µg/cm^2
- in vitro chromosome aberration tests [11]: positive

Compound: Cn1c(N)nc2c3cccnc3ccc21 [2-Amino-3-methylimidazo[4,5-f]quinolone]
- % MN-BN response in individual experiment(s), Lab A, 72-h protocol [1, 12]: Significant increases
- % MN-BN response in individual experiment(s), Lab A, 48-h protocol [1, 13]: no increase
- detection in the RS Comet assay ([6]; after multiple treatments): not detected
- % BN (excessive cytotoxicity) ([2]; at ≥150 µg/cm^2, 48-h protocol, Lab A): < 20 % BN
- IARC class ([4]; carcinogen classification): 2A

Compound: Cc1c2ccccc2c(C)c2c1ccc1ccccc12 [7,12-Dimethylbenz[a]thracene (DMBA), 7,12-Dimethylbenz[a]anthracene]
- % MN-BN response in individual experiment(s), Lab A, 48-h protocol [1]: did not increase
- % MN-BN response in individual experiment(s), Lab A, 72-h protocol [1]: did not induce an increase
- classification in the RSMN assay by Lab A [1]: negative
- top dose, limited by precipitation on the surface of the skin tissues ([2]; lab(s) as stated in the text): 240 µg/cm^2
- result in a previous RSMN study ([7]; % VCC not used as cytotoxicity measure, higher doses tested): positive

Compound: C=CCc1ccc(O)c(OC)c1 [Eugenol]
- in vitro MN tests ([10]; ref Supplementary Table S1): positive findings
- classification in the RSMN assay by Lab A ([1]; overall call): positive
- % MN-BN response in individual experiment(s), Lab A, 72-h protocol [1, 12]: significant increase in the % MN-BN was seen at the two highest doses
- % MN-BN response in individual experiment(s), Lab A, 48-h protocol [1, 13]: significant increase in % MN-BN only at one mid-dose
- top/maximum dose tested, limited by excessive or strong cytotoxicity ([2]; lab(s) as stated in the text): 80–100 µg/cm^2
- in vitro chromosome aberration tests ([11]; ref Supplementary Table S1): positive findings
- carcinogenicity tests ([4]; ref Supplementary Table S1): negative

Compound: ONc1ccc2c(c1)Cc1ccccc1-2 [N-hydroxy-2-aminofluorene]
- detection of DNA damage, RS Comet assay versus RSMN assay [6]: more efficiently detected in the RS Comet assay than in the RSMN assay

Compound: CC(=O)N(O)c1ccc2c(c1)Cc1ccccc1-2 [N-hydroxy-2-acetylaminofluorene]
- detection of DNA damage, RS Comet assay versus RSMN assay [6]: more efficiently detected in the RS Comet assay than in the RSMN assay
